Test results: patent US4214093A, “Amino- or guanidino-1,2,3,4-tetrahydro-1-naphthoic esters” (Torii & Co., Ltd., priority 1977, dated 1980)
Where two headings read alike, the source gives them in different places. Values belong to the molecule of their own block, whether it stands above or below them.

What was measured:
[1] = test system: clotting activity of thrombin; assay: Inhibitory activity on plasma clotting (rabbit platelet poor plasma, thrombin-induced); assay type: biochemical
Procedure: Blood was drawn from carotid artery of an ether anesthetized rabbit with 1/10 volume of 3.8% sodium citrate. Platelet poor plasma (PPP) was prepared from citrated blood which was centrifuged at 3,000 r.p.m. for 15 minutes at 4° C. PPP, 0.9 ml, was taken into cell, 10μ of a compound solution was added and incubated at 37° C. for 10 minutes. […] Compounds were dissolved in distilled water or 50% dimethyl sulfoxide (0.5% final concentration).

[2] = test system: thrombin; assay: Inhibitory activity on thrombus formation: protection from lethal thrombin injection in mice; assay type: in vivo, mice (ddY strain); settings: 10 minutes before thrombin 300 NIH units/kg i.v., No. 91 in 2.5% gum arabic
Procedure: White male mice (ddY strain), 4 weeks age and weighing 18-27 g, were used throughout the experiments. […] The intravenous injection of 300 NIH units/kg of thrombin over 30 seconds into mice was lethal to all animals. The compounds were intraperitoneally administered in doses of 1, 10, and 100 mg/kg in saline unless otherwise described.
Compounds were intraperitoneally administered 10 minutes before thrombin injection. Compound No. 91 was dissolved in 2.5% gum arabic.

[3] = target: T1, Trypsin (Bos taurus, UniProt P00760); assay: Inhibitory effect on ester-hydrolyzing activity of trypsin (TAMe substrate); assay type: biochemical; settings: for inhibition at 1000 µM: read-out: Trypsin percent inhibition; for IC50: pH 8.6, 37° C., Table 4 bracketed value, read-out: Trypsin ID50
T1 sequence (P00760 24-246): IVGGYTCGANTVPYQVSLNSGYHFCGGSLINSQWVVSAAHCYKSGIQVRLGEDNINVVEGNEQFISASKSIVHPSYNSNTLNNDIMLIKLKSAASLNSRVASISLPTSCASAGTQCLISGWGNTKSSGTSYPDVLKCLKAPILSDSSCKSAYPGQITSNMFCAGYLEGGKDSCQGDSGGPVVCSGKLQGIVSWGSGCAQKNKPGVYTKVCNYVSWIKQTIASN
Procedure: (§1) The enzyme-inhibitory activities in vitro of the compounds of this invention were measured by the following procedure according to the method of M. Muramatsu et al. [[…]. […] After the incubation, 1.5 ml of 2 M alkaline hydroxylamine was added and thoroughly mixed, and allowed to stand at room temperature for 15 minutes.

[4] = target: Human Plasmin (Homo sapiens, UniProt P00747); assay: Inhibitory effect on ester-hydrolyzing activity of human plasmin (TAMe substrate); assay type: biochemical; settings: for inhibition at 1000 µM: read-out: Plasmin percent inhibition; for IC50: Table 4 bracketed value, read-out: Plasmin ID50
Procedure: as §1, with “minutes. […] It was measured by using 0.1 ml of plasmin (generated by activation of plasminogen with streptokinase) and TAMe as substrate following the method described in (1).” for “minutes.”

[5] = target: Human Plasma Kallikrein (Homo sapiens, UniProt P03952); assay: Inhibitory effect on ester-hydrolyzing activity of human plasma kallikrein (TAMe substrate); assay type: biochemical; settings: for IC50: Table 4 bracketed value, read-out: Kallikrein ID50
Procedure: as §1

[6] = target: Bovine Thrombin (Bos taurus, UniProt P00735); assay: Inhibitory effect on ester-hydrolyzing activity of bovine thrombin (TAMe substrate); assay type: biochemical
Procedure: The enzyme-inhibitory activities in vitro of the compounds of this invention were measured by the following procedure according to the method of M. Muramatsu et al. [M. Muramatsu, T. Onishi, S. Makino, Y. Hayashi and S. Fujii: J. Biochem., 58, 214 (1965)]
To 0.1 ml of trypsin (5 μg/ml) were added 0.5 ml of 0.1 M borate buffer solution (pH 8.6) containing 10 mM CaCl2, and 0.1 ml of a varying concentration of an inhibitor solution, and preincubation was carried out at 37° C. for 5 minutes. Then, 10 μmoles of the substrate, TAMe (tosylarginine methyl ester), was added, and incubation was preformed at 37° C. for 30 minutes.
After the incubation, 1.5 ml of 2 M alkaline hydroxylamine was added and thoroughly mixed, and allowed to stand at room temperature for 15 minutes. Then, 1.0 ml of each of 18% trichloroacetic acid, 4 N HCl and 10% FeCl3 was added and thoroughly mixed. If necessary, the mixture was centrifuged at 3,000 rpm for 10 minutes, and the absorbance of the supernatant was measured at 530 nm.
It was measured by using 0.4 ml of bovine thrombin […], 0.02 M sodium phosphate buffer solution (pH 7.4) and TAMe as substrate following the method described in (1).

[7] = target: T2, Human Cl Esterase (Homo sapiens, UniProt P09871); assay: Inhibitory effect on ester-hydrolyzing activity of human Cl esterase (ATEe substrate); assay type: biochemical; settings: for IC50: in vitro, ATEe, pH 7.4, Table 4 bracketed value, read-out: Cl-esterase ID50
T2 sequence (P09871 438-688 limits assumed): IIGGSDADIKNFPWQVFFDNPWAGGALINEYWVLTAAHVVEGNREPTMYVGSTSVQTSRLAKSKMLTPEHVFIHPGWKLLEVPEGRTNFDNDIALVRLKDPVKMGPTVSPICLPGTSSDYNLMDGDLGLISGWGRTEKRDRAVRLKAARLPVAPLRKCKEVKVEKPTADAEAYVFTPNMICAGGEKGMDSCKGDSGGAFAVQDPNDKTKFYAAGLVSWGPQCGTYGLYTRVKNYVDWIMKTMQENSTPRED
T2 sequence (P09871 16-437 partner limits assumed): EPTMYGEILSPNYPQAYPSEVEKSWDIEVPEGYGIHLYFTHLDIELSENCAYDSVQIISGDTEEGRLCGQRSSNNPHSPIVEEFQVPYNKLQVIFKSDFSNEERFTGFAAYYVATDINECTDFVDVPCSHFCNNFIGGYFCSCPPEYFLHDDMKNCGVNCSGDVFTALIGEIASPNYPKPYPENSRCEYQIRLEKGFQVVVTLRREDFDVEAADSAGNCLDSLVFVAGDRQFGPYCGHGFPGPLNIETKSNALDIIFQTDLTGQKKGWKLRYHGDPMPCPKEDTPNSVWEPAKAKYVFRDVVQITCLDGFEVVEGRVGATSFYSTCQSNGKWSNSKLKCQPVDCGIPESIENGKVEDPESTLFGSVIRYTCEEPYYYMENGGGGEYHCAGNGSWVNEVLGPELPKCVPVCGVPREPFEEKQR
Procedure: It was measured by using 0.1 ml of Cl esterase, 0.1 ml of 0.02 M sodium phosphate buffer solution (pH 7.4 ) and 10 μmoles of ATEe (acetyltyrosine ethyl ester) as substrate following the method described in (1).

[8] = Acute toxicity (LD50) by intraperitoneal administration in mice; settings: mouse, in vivo, ip

Chain of Human Plasma Kallikrein (P03952 391-638 limits assumed): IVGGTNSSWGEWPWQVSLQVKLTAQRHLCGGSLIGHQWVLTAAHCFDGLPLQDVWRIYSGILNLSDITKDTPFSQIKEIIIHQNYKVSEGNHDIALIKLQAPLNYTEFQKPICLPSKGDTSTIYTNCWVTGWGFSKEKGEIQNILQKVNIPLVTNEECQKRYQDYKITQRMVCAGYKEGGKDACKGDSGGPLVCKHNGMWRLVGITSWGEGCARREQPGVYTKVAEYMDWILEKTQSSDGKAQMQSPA
Chain of Human Plasma Kallikrein (P03952 20-390 partner limits assumed): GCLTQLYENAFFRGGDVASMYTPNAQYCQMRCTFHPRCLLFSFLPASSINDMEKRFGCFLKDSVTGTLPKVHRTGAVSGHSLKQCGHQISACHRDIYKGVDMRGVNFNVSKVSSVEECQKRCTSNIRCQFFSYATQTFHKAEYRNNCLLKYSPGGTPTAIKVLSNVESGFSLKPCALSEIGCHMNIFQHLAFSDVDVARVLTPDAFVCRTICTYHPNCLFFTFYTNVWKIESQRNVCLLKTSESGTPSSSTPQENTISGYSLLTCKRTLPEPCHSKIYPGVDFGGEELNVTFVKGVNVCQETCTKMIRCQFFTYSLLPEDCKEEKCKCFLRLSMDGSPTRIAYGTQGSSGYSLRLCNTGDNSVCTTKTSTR
Chain of Human Plasmin (P00747 581-810 limits assumed): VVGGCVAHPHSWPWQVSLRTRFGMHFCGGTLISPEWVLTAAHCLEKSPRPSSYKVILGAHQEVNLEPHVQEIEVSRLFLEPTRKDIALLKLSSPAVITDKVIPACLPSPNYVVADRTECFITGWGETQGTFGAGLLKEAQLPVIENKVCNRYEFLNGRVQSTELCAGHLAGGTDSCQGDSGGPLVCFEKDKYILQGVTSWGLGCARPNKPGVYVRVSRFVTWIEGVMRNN
Chain of Human Plasmin (P00747 97-580 partner limits assumed): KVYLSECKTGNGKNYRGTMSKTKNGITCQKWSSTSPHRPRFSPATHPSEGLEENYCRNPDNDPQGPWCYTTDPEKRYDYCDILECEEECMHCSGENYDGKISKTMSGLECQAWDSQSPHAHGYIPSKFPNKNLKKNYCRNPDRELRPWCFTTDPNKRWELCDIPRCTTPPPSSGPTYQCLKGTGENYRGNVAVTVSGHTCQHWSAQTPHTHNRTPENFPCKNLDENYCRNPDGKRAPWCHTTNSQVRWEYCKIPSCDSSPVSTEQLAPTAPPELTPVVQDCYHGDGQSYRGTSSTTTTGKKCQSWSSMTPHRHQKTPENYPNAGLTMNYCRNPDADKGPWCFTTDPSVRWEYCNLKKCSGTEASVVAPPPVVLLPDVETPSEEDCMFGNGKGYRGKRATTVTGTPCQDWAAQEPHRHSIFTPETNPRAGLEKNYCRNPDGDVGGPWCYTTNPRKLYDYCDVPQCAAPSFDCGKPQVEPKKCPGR

Structure (SMILES): N=C(N)c1ccc(CC(=O)C(=O)O)cc1 [APPA-Na, sodium p-amidinophenyl pyruvate, reference compound]
Percent inhibition of clotting activity ([1]; 3 × 10^-4 M, DMSO control): 86.5% | Percent inhibition of clotting activity ([1]; 3 × 10^-5 M, DMSO control): -9.5% | Percent inhibition of clotting activity ([1]; 10^-3 M, DMSO control): 100.0% | Percent inhibition of clotting activity ([1]; 10^-4 M, DMSO control): 44.2% | Percent inhibition of clotting activity ([1]; 10^-5 M, DMSO control): -11.7% | % protective ([2]; 1 mg/kg i.p.): 0% | Survived / Tested ([2]; 1 mg/kg i.p.): 0/9 | % protective ([2]; 10 mg/kg i.p.): 33% | Survived / Tested ([2]; 10 mg/kg i.p.): 3/9 | % protective ([2]; 100 mg/kg i.p.): 46% | Survived / Tested ([2]; 100 mg/kg i.p.): 5/11

Structure (SMILES): N=C(N)Nc1cccc2c1CCCC2C(=O)Oc1ccc(Cl)cc1 (centres unmarked) [Compound 111]
inhibition at 1000 µM ([3]; at 10^-3 M, in vitro, TAMe): 19% | inhibition at 1000 µM ([4]; at 10^-3 M, in vitro, TAMe): < 3.2% | inhibition at 1000 µM ([5]; at 10^-3 M, in vitro, TAMe, read-out: Kallikrein percent inhibition): < 3.2% | inhibition at 1000 µM ([6]; at 10^-3 M, in vitro, TAMe, read-out: Thrombin percent inhibition): 18.6% | IC50 [7]: 680 µM | LD50 [8]: 333 mg/kg

Structure (SMILES): COC(=O)c1ccc(OC(=O)C2CCCc3c(NC(=N)N)cccc32)cc1 (centres unmarked) [Compound 118]
IC50 ([3]; in vitro, TAMe): 1000 µM | IC50 ([4]; in vitro, TAMe): 1000 µM | IC50 [6]: 80 µM | IC50 [7]: 780 µM | % protective ([2]; 1 mg/kg i.p.): 20% | Survived / Tested ([2]; 1 mg/kg i.p.): 2/10 | % protective ([2]; 10 mg/kg i.p.): 30% | Survived / Tested ([2]; 10 mg/kg i.p.): 3/10 | % protective ([2]; 100 mg/kg i.p.): 40% | Survived / Tested ([2]; 100 mg/kg i.p.): 4/10 | LD50 [8]: 192 mg/kg

Structure (SMILES): Cl.N=C(N)Nc1ccc2c(c1)C(C(=O)Oc1ccccc1)CCC2 (centres unmarked) [Compound 134, phenyl 7-guanidino-1,2,3,4-tetrahydro-1-naphthoate hydrochloride]
inhibition at 1000 µM [3]: 40.6% | inhibition at 1000 µM [4]: < 3.2% | inhibitory activity on plasmin ([4]; text of Examples): no activity at all | IC50 ([5]; in vitro, TAMe): 290 µM | inhibitory activity on kallikrein ([5]; text of Examples): had an inhibitory activity | IC50 [6]: 27 µM | IC50 [7]: 370 µM | inhibitory activity on Cl-esterase ([7]; text of Examples): had an inhibitory activity | Percent inhibition of clotting activity ([1]; 3 × 10^-4 M, H2O control): 97.8% | Percent inhibition of clotting activity ([1]; 3 × 10^-5 M, H2O control): 11.1% | Percent inhibition of clotting activity ([1]; 10^-3 M, H2O control): 100% | Percent inhibition of clotting activity ([1]; 10^-4 M, H2O control): 42.2% | Percent inhibition of clotting activity ([1]; 10^-5 M, H2O control): 13.3% | % protective ([2]; 1 mg/kg i.p.): 0% | Survived / Tested ([2]; 1 mg/kg i.p.): 0/9 | % protective ([2]; 10 mg/kg i.p.): 10% | Survived / Tested ([2]; 10 mg/kg i.p.): 1/10 | % protective ([2]; 100 mg/kg i.p.): 70% | Survived / Tested ([2]; 100 mg/kg i.p.): 7/10

IC50 ([3]; in vitro, TAMe): 78 µM | IC50 ([4]; in vitro, TAMe): 1000 µM | IC50 ([5]; in vitro, TAMe): 120 µM | IC50 [6]: 45 µM | IC50 [7]: 250 µM
Structure (SMILES): N=C(N)Nc1ccc2c(c1)C(C(=O)Oc1ccc(Cl)cc1)CCC2 (centres unmarked) [Compound 137]
Percent inhibition of clotting activity ([1]; 3 × 10^-5 M, H2O control): 10.0% | Percent inhibition of clotting activity ([1]; 10^-4 M, H2O control): 2.0% | Percent inhibition of clotting activity ([1]; 10^-5 M, H2O control): -5.0%

Structure (SMILES): CCCCOc1ccc(OC(=O)C2CCCc3ccc(NC(=N)N)cc32)cc1 (centres unmarked) [Compound 142]
inhibition at 1000 µM [3]: 36.9% | IC50 ([4]; in vitro, TAMe): 360 µM | IC50 ([5]; in vitro, TAMe): 76 µM | IC50 [6]: 24 µM | IC50 [7]: 460 µM | Percent inhibition of clotting activity ([1]; 3 × 10^-4 M, DMSO control): 13.0% | Percent inhibition of clotting activity ([1]; 3 × 10^-5 M, DMSO control): -3.0% | Percent inhibition of clotting activity ([1]; 10^-3 M, DMSO control): 61.0% | Percent inhibition of clotting activity ([1]; 10^-4 M, DMSO control): 0.0% | Percent inhibition of clotting activity ([1]; 10^-5 M, DMSO control): -5.0%

Structure (SMILES): COC(=O)c1ccc(OC(=O)C2CCCc3ccc(NC(=N)N)cc32)cc1 (centres unmarked) [Compound 144]
IC50 ([3]; in vitro, TAMe): 14 µM | IC50 ([4]; in vitro, TAMe): 45 µM | IC50 [6]: 19 µM | IC50 [7]: 310 µM | Percent inhibition of clotting activity ([1]; 3 × 10^-4 M, DMSO control): 57.3% | Percent inhibition of clotting activity ([1]; 3 × 10^-5 M, DMSO control): 1.7% | Percent inhibition of clotting activity ([1]; 10^-3 M, DMSO control): 98.1% | Percent inhibition of clotting activity ([1]; 10^-4 M, DMSO control): 58.0% | Percent inhibition of clotting activity ([1]; 10^-5 M, DMSO control): -3.6% | LD50 [8]: 192 mg/kg

Structure (SMILES): CCOC(=O)c1ccc(OC(=O)C2CCCc3ccc(NC(=N)N)cc32)cc1 (centres unmarked) [Compound 148]
IC50 ([3]; in vitro, TAMe): 150 µM | IC50 ([4]; in vitro, TAMe): 140 µM | IC50 ([5]; in vitro, TAMe): 170 µM | IC50 [6]: 6 µM | IC50 [7]: 260 µM | Percent inhibition of clotting activity ([1]; 3 × 10^-4 M, H2O control): 55.6% | Percent inhibition of clotting activity ([1]; 3 × 10^-5 M, H2O control): 20.0% | Percent inhibition of clotting activity ([1]; 10^-3 M, H2O control): 100% | Percent inhibition of clotting activity ([1]; 10^-4 M, H2O control): 6.7% | Percent inhibition of clotting activity ([1]; 10^-5 M, H2O control): -2.2% | % protective ([2]; 1 mg/kg i.p.): 0% | Survived / Tested ([2]; 1 mg/kg i.p.): 0/10 | % protective ([2]; 10 mg/kg i.p.): 30% | Survived / Tested ([2]; 10 mg/kg i.p.): 3/10 | % protective ([2]; 100 mg/kg i.p.): 90% | Survived / Tested ([2]; 100 mg/kg i.p.): 9/10 | LD50 [8]: 92 mg/kg
